Laboratory results reported in publication PMC11062922 (Nature Chemical Biology, 2023).
Where two headings read alike, the source gives them in different places.

Key:
[1] = target: T1, AAK1 (Homo sapiens, UniProt Q2M2I8); test: Kinobeads two-dose competition binding: AAK1; settings: for CATDS: sheet CATDS matrix 2, Gene Name AAK1; for potency estimated from few doses: read-out: Kinobeads Drugmatrix - all: apparent Kd, AAK1;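 on all read-outs here: kinobeads competition pulldown from cell lysate, compound preincubated 45 min at 4 °C, bead-bound protein measured by label-free mass spectrometry against DMSO vehicle control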
T1 construct: to maximize the representation of endogenous proteins; endogenous in cells
T1 sequence (Q2M2I8 whole entry): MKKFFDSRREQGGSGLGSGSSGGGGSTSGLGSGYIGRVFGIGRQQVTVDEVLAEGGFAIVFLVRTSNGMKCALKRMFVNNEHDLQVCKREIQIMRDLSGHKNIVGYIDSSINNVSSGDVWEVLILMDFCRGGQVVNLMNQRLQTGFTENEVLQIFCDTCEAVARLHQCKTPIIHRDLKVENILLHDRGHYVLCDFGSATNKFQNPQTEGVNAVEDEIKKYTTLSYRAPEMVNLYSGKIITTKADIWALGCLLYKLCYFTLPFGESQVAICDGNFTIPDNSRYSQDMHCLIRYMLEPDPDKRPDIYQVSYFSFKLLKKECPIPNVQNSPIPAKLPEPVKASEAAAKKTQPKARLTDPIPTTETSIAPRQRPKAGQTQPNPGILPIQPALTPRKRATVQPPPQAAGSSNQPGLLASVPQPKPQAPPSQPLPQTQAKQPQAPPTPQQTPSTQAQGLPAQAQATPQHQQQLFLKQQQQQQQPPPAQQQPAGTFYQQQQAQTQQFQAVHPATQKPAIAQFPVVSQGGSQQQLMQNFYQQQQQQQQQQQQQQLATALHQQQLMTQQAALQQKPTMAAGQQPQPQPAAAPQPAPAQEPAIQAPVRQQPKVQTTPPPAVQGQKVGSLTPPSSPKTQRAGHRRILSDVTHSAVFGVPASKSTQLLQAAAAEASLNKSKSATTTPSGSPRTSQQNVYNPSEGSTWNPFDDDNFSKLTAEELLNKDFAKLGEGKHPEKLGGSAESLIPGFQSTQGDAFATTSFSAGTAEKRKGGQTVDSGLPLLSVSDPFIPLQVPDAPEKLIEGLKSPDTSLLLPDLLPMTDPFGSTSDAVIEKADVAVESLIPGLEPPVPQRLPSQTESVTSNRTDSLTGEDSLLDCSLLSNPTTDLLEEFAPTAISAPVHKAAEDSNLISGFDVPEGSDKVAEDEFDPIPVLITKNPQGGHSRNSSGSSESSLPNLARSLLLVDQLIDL

[2] = target: T2, ACOX1 (Homo sapiens, UniProt Q15067); test: Kinobeads two-dose competition binding: ACOX1; settings: sheet CATDS matrix 2; Gene Name ACOX1;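 further: competition of compounds with immobilized broad-spectrum kinase inhibitor beads in cell lysate at 100 and 1,000 nM, 45 min at 4 °C, bead-bound protein quantified by label-free MS versus DMSO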
T2 construct: endogenous in cells
T2 sequence (Q15067 1-660): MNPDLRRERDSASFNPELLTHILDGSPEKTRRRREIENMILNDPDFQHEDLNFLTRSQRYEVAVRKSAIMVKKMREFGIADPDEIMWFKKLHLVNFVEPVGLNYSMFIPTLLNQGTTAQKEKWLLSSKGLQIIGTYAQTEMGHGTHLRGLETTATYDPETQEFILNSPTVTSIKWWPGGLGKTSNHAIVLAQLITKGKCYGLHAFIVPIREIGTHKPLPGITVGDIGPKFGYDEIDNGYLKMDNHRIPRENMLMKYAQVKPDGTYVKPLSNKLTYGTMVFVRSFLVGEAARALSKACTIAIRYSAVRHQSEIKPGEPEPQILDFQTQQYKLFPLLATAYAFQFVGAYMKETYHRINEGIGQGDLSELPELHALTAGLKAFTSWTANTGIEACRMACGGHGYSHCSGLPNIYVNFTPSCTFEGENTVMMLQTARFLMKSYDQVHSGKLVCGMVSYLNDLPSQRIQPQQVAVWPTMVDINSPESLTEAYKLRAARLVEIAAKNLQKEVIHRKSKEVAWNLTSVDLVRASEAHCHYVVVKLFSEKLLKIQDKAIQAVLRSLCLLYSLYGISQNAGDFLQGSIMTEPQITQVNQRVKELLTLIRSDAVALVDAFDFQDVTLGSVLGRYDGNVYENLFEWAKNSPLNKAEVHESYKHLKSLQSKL

[3] = target: T3, ACAD11 (Homo sapiens, UniProt Q709F0); test: Kinobeads two-dose competition binding: ACAD11; settings: sheet CATDS matrix 2; Gene Name ACAD11
T3 construct: endogenous in cells
T3 sequence (Q709F0 1-780): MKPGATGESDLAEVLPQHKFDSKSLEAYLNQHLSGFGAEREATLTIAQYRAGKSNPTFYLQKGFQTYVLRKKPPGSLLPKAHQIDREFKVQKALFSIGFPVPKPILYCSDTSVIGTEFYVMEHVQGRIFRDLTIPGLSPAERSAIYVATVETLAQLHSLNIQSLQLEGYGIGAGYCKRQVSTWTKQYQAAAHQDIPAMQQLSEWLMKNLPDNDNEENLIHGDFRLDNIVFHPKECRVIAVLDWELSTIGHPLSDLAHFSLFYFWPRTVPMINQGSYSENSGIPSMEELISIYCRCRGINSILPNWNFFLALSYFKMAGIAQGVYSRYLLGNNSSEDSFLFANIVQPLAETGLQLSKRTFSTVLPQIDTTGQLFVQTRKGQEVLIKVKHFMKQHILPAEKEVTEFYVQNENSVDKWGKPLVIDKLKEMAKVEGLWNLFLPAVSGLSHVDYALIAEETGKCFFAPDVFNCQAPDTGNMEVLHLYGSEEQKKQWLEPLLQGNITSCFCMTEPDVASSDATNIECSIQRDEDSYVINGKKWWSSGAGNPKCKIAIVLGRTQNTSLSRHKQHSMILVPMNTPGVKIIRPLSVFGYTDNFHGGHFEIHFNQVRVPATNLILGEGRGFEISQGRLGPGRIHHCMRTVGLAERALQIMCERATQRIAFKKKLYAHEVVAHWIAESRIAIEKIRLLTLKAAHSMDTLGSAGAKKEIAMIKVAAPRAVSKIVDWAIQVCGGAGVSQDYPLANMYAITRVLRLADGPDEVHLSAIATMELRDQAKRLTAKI

[4] = target: T4, ABL1 (Homo sapiens, UniProt P00519); test: Kinobeads two-dose competition binding: ABL1; settings: sheet CATDS matrix 2; Gene Name ABL1
T4 sequence (P00519 28-1130 limits assumed): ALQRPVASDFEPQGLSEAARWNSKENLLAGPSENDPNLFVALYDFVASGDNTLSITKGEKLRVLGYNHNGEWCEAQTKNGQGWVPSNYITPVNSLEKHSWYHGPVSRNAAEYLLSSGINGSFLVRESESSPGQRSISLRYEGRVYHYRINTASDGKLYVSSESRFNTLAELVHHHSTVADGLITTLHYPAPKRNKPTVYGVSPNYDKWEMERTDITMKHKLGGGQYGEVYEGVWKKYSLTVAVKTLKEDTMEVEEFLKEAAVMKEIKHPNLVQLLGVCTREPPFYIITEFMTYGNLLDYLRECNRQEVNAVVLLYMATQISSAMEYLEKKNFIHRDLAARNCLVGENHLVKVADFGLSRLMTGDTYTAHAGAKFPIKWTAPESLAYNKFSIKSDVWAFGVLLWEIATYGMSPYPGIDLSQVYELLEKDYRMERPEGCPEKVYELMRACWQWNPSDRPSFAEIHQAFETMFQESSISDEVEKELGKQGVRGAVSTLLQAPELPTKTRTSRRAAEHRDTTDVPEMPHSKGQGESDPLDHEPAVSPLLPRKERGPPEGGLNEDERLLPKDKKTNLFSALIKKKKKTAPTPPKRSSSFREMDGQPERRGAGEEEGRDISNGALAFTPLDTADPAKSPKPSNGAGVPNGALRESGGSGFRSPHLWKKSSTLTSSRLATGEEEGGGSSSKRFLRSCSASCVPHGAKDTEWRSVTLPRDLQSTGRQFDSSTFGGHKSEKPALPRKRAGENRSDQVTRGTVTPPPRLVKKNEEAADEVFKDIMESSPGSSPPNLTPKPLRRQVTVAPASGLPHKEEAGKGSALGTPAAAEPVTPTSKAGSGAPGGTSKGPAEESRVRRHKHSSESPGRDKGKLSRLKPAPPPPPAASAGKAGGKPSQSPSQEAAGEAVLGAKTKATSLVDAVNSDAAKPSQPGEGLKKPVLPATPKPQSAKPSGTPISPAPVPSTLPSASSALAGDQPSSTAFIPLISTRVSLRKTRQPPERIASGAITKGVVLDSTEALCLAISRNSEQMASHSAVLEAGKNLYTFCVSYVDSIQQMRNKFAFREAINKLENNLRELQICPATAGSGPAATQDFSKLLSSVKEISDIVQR

[5] = target: T5, ABL2 (Homo sapiens, UniProt P42684); test: Kinobeads two-dose competition binding: ABL2; settings: sheet CATDS matrix 2; Gene Name ABL2
T5 construct: endogenous in cells
T5 sequence (P42684 whole entry): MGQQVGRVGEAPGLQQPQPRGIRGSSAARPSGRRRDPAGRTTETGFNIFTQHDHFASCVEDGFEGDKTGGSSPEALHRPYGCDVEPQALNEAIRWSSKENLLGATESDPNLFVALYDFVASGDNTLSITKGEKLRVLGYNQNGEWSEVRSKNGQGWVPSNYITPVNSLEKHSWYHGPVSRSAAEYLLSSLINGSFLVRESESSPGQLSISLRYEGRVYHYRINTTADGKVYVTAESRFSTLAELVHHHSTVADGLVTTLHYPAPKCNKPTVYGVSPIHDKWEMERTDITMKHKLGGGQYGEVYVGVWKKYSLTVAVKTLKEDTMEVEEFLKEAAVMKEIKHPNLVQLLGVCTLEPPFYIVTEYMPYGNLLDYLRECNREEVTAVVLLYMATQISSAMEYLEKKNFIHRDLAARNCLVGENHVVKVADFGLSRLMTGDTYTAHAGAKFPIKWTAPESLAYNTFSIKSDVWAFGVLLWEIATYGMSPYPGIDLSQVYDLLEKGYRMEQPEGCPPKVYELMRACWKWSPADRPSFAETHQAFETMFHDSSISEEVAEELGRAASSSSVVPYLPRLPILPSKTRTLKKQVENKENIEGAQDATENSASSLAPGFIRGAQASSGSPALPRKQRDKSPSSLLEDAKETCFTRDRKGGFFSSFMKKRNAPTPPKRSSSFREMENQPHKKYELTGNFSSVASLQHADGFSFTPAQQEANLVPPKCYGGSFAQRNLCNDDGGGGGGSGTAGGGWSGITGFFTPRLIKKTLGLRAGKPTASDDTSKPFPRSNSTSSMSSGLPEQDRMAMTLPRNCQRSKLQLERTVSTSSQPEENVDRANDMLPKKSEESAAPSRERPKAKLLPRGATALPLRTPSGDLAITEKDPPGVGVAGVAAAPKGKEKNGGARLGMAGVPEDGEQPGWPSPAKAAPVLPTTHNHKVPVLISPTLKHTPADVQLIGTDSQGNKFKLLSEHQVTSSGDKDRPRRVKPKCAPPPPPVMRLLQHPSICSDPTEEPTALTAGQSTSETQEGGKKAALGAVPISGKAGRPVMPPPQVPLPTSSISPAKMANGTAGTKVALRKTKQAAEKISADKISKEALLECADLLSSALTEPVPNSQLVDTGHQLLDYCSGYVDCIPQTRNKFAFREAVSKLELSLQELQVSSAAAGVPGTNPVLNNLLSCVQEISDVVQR

[6] = target: T5, ABL2; test: Kinobeads two-dose competition binding: ABL2; settings: sheet "Kinobeads Drugmatrix - all"; unit inferred; read-out: Kinobeads Drugmatrix - all: apparent Kd, ABL2
[7] = test system: endogenous kinases and other proteins enriched by Kinobeads from mixed lysates of K-562, COLO-205, MV-4-11, SK-N-BE(2) and OVCAR-8; test: Kinobeads competition binding profiling, two doses (100 nM and 1 µM); parameters: species or system human;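 further: inhibitor preincubated 45 min at 4 °C in cell lysate, then bead pulldown. Bound protein quantified by label-free mass spectrometry relative to DMSO vehicle control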
[8] = target: T4, ABL1; test: Kinobeads two-dose competition binding: ABL1; settings: sheet "Kinobeads Drugmatrix - all"; unit inferred; read-out: Kinobeads Drugmatrix - all: apparent Kd, ABL1
[9] = target: PKN3 (Homo sapiens, UniProt Q6P5Z2); test: NanoBRET in-cell target engagement in HEK293T cells: PKN3; format: cell-based; parameters: full-length PKN3, CSNK2A1 or CSNK2A2 ORF; host or cells: HEK293T;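 further: Full-length PKN3 with C-terminal NanoLuc expressed in HEK293T cells, serial inhibitor dilutions competing against Kinase Tracer K5 at 500 nM, BRET read after 2 h at 37 °C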
Chain of PKN3 (Q6P5Z2 whole entry): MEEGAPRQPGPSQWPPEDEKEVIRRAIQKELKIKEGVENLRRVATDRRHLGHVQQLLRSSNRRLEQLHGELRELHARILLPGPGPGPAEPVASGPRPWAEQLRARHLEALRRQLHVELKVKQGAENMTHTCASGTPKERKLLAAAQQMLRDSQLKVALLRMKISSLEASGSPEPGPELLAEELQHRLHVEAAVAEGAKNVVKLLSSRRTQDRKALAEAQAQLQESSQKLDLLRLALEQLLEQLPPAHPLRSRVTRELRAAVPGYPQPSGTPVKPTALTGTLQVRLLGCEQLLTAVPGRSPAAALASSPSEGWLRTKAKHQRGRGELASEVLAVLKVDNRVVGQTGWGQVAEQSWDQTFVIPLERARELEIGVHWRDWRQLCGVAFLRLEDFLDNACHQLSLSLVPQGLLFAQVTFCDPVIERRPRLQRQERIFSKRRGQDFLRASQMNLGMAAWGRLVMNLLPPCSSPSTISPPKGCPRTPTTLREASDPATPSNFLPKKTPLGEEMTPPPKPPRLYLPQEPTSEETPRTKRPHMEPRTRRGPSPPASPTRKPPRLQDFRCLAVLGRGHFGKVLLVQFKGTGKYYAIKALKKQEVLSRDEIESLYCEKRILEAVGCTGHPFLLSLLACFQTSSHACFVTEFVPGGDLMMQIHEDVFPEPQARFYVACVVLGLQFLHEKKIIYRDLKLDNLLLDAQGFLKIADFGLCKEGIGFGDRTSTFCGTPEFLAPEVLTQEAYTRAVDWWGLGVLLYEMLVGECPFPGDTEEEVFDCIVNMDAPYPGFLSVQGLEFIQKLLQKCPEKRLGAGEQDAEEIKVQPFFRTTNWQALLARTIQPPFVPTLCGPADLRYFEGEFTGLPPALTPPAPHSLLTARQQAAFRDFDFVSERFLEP

[10] = HEK293T cells, in-cell target engagement, read-out: IC50 PKN3 NanoBRET
[11] = average of replicates, read-out: Average of IC50 values NanoBRET PKN3
[12] = biological replicate number 1, read-out: Rep 1 IC50 NanoBRET PKN3
[13] = biological replicate number 2, read-out: Rep 2 IC50 NanoBRET PKN3
[14] = biological replicate number 3, read-out: Rep 3 IC50 NanoBRET PKN3
[15] = biological replicate number 4, read-out: Rep 4 IC50 NanoBRET PKN3
[16] = sheet "Kinobeads Drugmatrix - all", unit inferred, same values below 1000 recur in sheet "nanomolar"

SMILES	CATDS [1]	CATDS [2]	CATDS [3]	CATDS [4]	CATDS [5]	potency estimated from few doses [6] [nM]	detection of the designated target by Kinobeads ([7]; previous chemical probes)	selectivity in the Kinobeads assay (CATDSmost potent) ([7]; in words)	potency estimated from few doses [8] [nM]	IC50 [9, 10] [nM]	IC50 [9, 11] [nM]	IC50 [9, 12] [nM]	IC50 [9, 13] [nM]	IC50 [9, 14] [nM]	IC50 [9, 15] [nM]	potency estimated from few doses [1, 16] [nM]	potency estimated from few doses [1] [nM]
CC(=O)N1CCN(c2ccc(Nc3nccc(-c4sc(C(C)C)nc4-c4cccc(NS(=O)(=O)c5cccc(Cl)c5)c4)n3)cn2)CC1 [GSK1660437A]	0	0	0	0	0.07869	351											
O=C(NCCO)c1cccc(-c2cc(Nc3ccc(OC(F)(F)F)cc3)ncn2)c1 [GNF-5, reference compound]							failed to reveal their targets										
O=C(O[C@H]1CN[C@H](C#Cc2cc3ncnc(Nc4ccc(OCc5cccc(F)c5)c(Cl)c4)c3s2)C1)N1CCOCC1 [GW869810X]								very selective									
NC[C@@](O)(c1ccc(Cl)cc1)c1ccc(-c2cn[nH]c2)cc1 [AT-13148, reference compound]	0	0	0	0	0					2060							
CNC(=O)c1ccccc1Nc1nc(Nc2ccc(N3CCOCC3)cc2)ncc1Cl [GSK1576028A]	0.02054	0	0	0	0				> 1000								142
CC(=O)N1CCN(c2ccc(Nc3nccc(-c4sc(C(C)C)nc4-c4cccc(NS(=O)(=O)c5ccccc5)c4)n3)cn2)CC1 [GSK1645872A]	0	0	0	0.02989	0.06803	166			746								
COc1cccc2c(-c3ccncc3)c(-c3ccc(F)cc3)nn12 [GW468513X]											910	2110	552		73.9		
CNC(=O)c1ccccc1Nc1nc(Nc2cccc(CS(C)(=O)=O)c2)ncc1C [GSK1520489A]	0	0	0	0.01362	0.01375	389			401								
CC(C)c1nc(-c2ccc(F)c(NS(=O)(=O)c3c(F)cccc3F)c2)c(-c2ccnc(Nc3ccc(N4CCOCC4)nc3)n2)s1 [GSK1804250A]	0	0	0	0.03302	0.1009	126			970								
Clc1cc(Cl)cc(Nc2ccnc(Nc3cc(Cl)cc(Cl)c3)n2)c1 [GSK175726A]	0.01178	0	0	0.026	0.1551	7.68			83.2							460	

Continued, in another order:

CATDS [1]	CATDS [2]	CATDS [3]	CATDS [4]	CATDS [5]	potency estimated from few doses [6] [nM]	detection of the designated target by Kinobeads ([7]; previous chemical probes)	selectivity in the Kinobeads assay (CATDSmost potent) ([7]; in words)	potency estimated from few doses [8] [nM]	IC50 [9, 10] [nM]	IC50 [9, 11] [nM]	IC50 [9, 12] [nM]	IC50 [9, 13] [nM]	IC50 [9, 14] [nM]	IC50 [9, 15] [nM]	potency estimated from few doses [1, 16] [nM]	SMILES	potency estimated from few doses [1] [nM]
0	0	0	0	0.03238	956											COc1cc2ncn(-c3cc(OCCCc4ccccc4)c(C(N)=O)s3)c2cc1OC [GSK205189A]	
0	0	0	0	0.05238	515			> 1000								CN1CCc2ccc(Nc3nccc(-c4c(-c5cccc(NC(=O)c6c(F)cccc6F)c5)nc5ccccn45)n3)cc2C1 [GSK1010829B]	
0	0	0	0.04923	0				661								COc1cc2nccc(Nc3ccc(Oc4ccccc4)cc3)c2cc1OC [GI261656A]	
0	0	0	0	0					11000	6970	11100	9200	6130	1430		CCn1c(-c2nonc2N)nc2c(C#CC(C)(C)O)nc(CN3CCCC3)cc21 [GSK1000163A]	
0	0	0	0.02015	0.03972	93.8			368								CC(C)c1nc(-c2cccc(NS(=O)(=O)c3ccccc3)c2)c(-c2ccnc(Nc3ccc4c(c3)CN(C)CC4)n2)s1 [GSK1649598A]	
										22900	19100	20600	50100	1840		ON=C1CCc2cc(-c3nc(C4CCNCC4)[nH]c3-c3ccncc3)ccc21 [SB-614067-R]	
										513	538	1230	111	173		CNc1ncc2cc(-c3cc(NC(=O)NCCC(C)(C)C)c(F)cc3C)c(C)nc2n1 [LY3009120, reference compound]	
									74	22.3	73.6	6.19	6.22	3.37		CCn1c(-c2nonc2N)nc2c(-c3ccccc3)ncc(OCCCN)c21 [GSK260205A]	
										> 50000	> 50000	> 50000	> 50000	> 50000		CCOc1nccc2c1nc(-c1nonc1N)n2CC [SB-737198]	
0	0	0	0.0244	0.05939	61.3			301								CC(C)c1nc(-c2cccc(NS(=O)(=O)c3c(F)cccc3F)c2)c(-c2ccnc(Nc3ccc(N4CCOCC4)nc3)n2)s1 [GSK1723980B]	
0	0	0	0.02525	0.07581	101			706								CC(C)c1nc(-c2cccc(NS(=O)(=O)c3c(F)cccc3F)c2F)c(-c2ccnc(Nc3ccc(N4CCOCC4)nc3)n2)s1 [GSK2008607A]	
0.01049	0	0	0.01209	0.008409	334			112							164	COc1ccc(Nc2ncc(C#N)c(Nc3ccccc3C(N)=O)n2)cc1N1CCN(C)CC1 [GSK1558669A]	
